Data set [1] is described as follows: Metabolic stability in male ICR mouse liver microsomes assessed as parent compound remaining at 1 uM measured after 30 mins in presence of NADPH by LC-MS analysis. It is filed as ADME, Microsome. Conditions: read-out: Stability.
A short description of data set [2]: Inhibition of IDH1 R132C mutant in human HT-1080 cells incubated for 72 hrs by measuring 2-HG production by fluorescence based analysis. Format: functional, cell-based. Conditions: HT-1080, 72 h.
Data set [3] is described as follows: Volume of distribution at steady state in male Sprague-Dawley rat at 1 mg/kg, iv measured after 24 hrs by LC/MS/MS analysis. Particulars: in vivo, read-out: Vdss. It is filed as ADME, organism-based.
Data set [4] can be described thus: Apparent permeability across basolateral to apical side in human Caco-2 cells at 10 uM incubated for 1 hrs by LC-MS/MS analysis.
Data set [5] can be described thus: Half life in male ICR mouse at 2.5 mg/kg, iv measured after 8 hrs by LC/MS/MS analysis. It is filed as ADME, organism-based. Conditions: in vivo.
A short description of data set [6]: Cmax in male ICR mouse at 10 mg/kg, po measured after 8 hrs by LC/MS/MS analysis. Format: ADME, organism-based. Particulars: in vivo.
The nature of data set [7]: Half life in male ICR mouse at 10 mg/kg, po measured after 8 hrs by LC/MS/MS analysis. Format: ADME, organism-based. Particulars: in vivo.
Data set [8] in a line: Oral bioavailability in male ICR mouse at 10 mg/kg measured after 8 hrs by LC/MS/MS analysis. Conditions: in vivo. Format: ADME, organism-based.
The nature of data set [9]: AUC(0 to infinity) in male ICR mouse at 2.5 mg/kg, iv measured after 8 hrs by LC/MS/MS analysis. Format: ADME, organism-based. Particulars: in vivo.
Data set [10] is described as follows: Inhibition of IDH2 R140Q mutant in human U-87 MG cells incubated for 72 hrs by measuring 2-HG production by fluorescence based analysis. It is filed as functional, cell-based, U-87MG ATCC. Particulars: Homo sapiens, U-87 MG, 72 h.
Data set [11] in a line: In vivo inhibition of 2-HG in BALB/c nude mouse xenografted with human U-87 MG cells harboring IDH2 R140Q mutant at 25 mg/kg, po measured after 24 hrs post dose. It is filed as functional. Conditions: Mus musculus, BALB/c, U-87 MG.
A short description of data set [12]: Cmax in male Sprague-Dawley rat at 5 mg/kg, po measured after 24 hrs by LC/MS/MS analysis. It is filed as ADME, organism-based. Particulars: in vivo.

SMILES strings stand for the structures.

Consider `C[C@@H](Nc1nc(N[C@H](C)C(F)(F)F)nc(C2=C(F)[C@H](O)C(F)(F)CC2)n1)C(F)(F)F` [RANOSIDENIB], for which the remaining at 0.5 h, 1 µM in data set [1] worked out at 98.4%. Further, the results for the IC50 in data set [2] and in data set [10] were 26 nM and 31 nM, respectively. Moreover, the Vd in data set [3] was determined as 3.67 L/kg. Besides, the Papp B→A at 1 h, 10 µM in data set [4] is 24 ×10⁻⁶ cm/s. For the same compound, the half-life was 10.6 h in data set [5] and 20.2 h in [7]. Moreover, the Cmax came to 2050 ng/mL in data set [6] and 1490 ng/mL in data set [12]. Also, the bioavailability in [8] turned out to be 84.2%. In addition, in data set [9], the AUC(0-inf) came to 12700 ng·h/mL. The compound further returned an inhibition in vivo at 25 mg/kg in data set [11] of 98%.
